Experimental findings from EP0462935B1, “Enantiomers of 2-tetrahydrofuran derivatives, intermediates therefor and their preparation” (SANDOZ AG, priority 1990, dated 1991) are described below.

The subject of assay [1] is Chronic relapsing experimental allergic encephalomyelitis. In words: Chronic relapsing experimental allergic encephalomyelitis (CR-EAE test), therapeutic treatment. The settings on record: 5 to 50 mg/kg/day p.o. for 16 days starting on day 16; for protective efficacy: during treatment and following discontinuation of drug; for inhibiting the appearance of mild to severe clinical symptoms: for the period of treatment. In kind it is in vivo, rat.

In assay [2] the test system is Experimental allergic encephalomyelitis. Nature of the assay: Experimental allergic encephalomyelitis (EAE test), preventive treatment. The note with it: for Animals with total paralysis) % / Animals with total paralysis) No./total: preventive treatment, 25 mg/kg/day p.o., rat; for Animals with total paralysis) No./total: number of animals with total paralysis per total number of rats treated. Type of assay: in vivo, rat. As to the method:
1. Experimental allergic encephalomyelitis (EAE test) in the rat; preventive treatment:
[Levine et al., Am. J. Path. 47 (1965) 61; McFarlin et al., J. Immunol. 113 (1974) 712; Borel, Transplant. & Clin. Immunol. 13 (1981) 3]:
Male Wistar rats are injected in the hind paws with 0.1 ml of a mixture of bovine spinal cord and complete Freund's adjuvant. The test compound is administered at dosages of from 5 to 50 mg/kg/day p.o. 5 days a week, commencing on the day of sensitization and continuing for 2 weeks. Onset of EAE in control groups receiving no medication generally commences between 9 to 16 days after sensitization and is marked by symptoms of paralysis in the hind limbs and tail. Test animals are examined daily for symptoms of the disease and disease occurrence is scored according to their severity. Total paralysis means complete involvement of both hind legs and tail. The test animals are kept under observation for a total period of 50 days.

Assay [3] deals with Delayed-type hypersensitivity. Nature of the assay: Delayed-type hypersensitivity (DTH test) mediated by cloned helper T cells. In kind it is in vivo, mouse. The settings on record: footpad swelling after 24 h. As to the method:
4. Delayed-type hypersensitivity (DTH test) in the mouse:
Suppression of DTH mediated by cloned helper T cells is tested with mice injected subcutaneously with cloned helper T cells together with the relevant antigen, namely sheep erythrocytes, in one hind footpad and with the same clone plus an unrelated antigen as control in the other footpad. The drugs are administered orally twice, first one day before and again at the time of the cell injection. After 24 h the increase in footpad thickness is measured. Footpad swelling is indicated as percentage compared with the control group (placebo).

The subject of another assay is YAC-1. In words: Tumor cell cytotoxicity test (TCC test). The note with it: 72 hours. Type of assay: cell-based. As to the method:
(§1) 1. Tumor cell cytotoxicity test (TCC test):
(§2) In flat bottom microtiter plates (Nunc Roskieide, Denmark) are placed Abelson 8.1 lymphoma, YAC-1, L1210 or P815 tumor cells in Dulbecco modified Eagle's medium (DMEM) + 10 % fetal calf serum and the tumor cell-containing plates are incubated with 1, 3 and 5 »g of the test compound for a period of 6 to 72 hours. The number of viable tumor cells present in the Abelson 8.1, YAC-1, L1210 and P815 assays is determined by measuring the alkaline phosphatase in the following manner: the tumor cell plates are centrifuged (500 x g) for ten minutes and the supernatant flicked off. Without further washing, 100 »l of buffer containing 20 »l of diethanolamine, 2 »M of MgCl₂·6H₂O, 2.5 »M of p-nitrophenylphosphate and 10 mg Triton X-100 are added. The samples are incubated for 60 minutes at room temperature and the enzymatic reaction is terminated by the addition of 100 »l of 0.5 N NaOH. The absorbance is then measured at […] using a Titertek Multiskan apparatus.
(§3) At an incubation period of 72 hours the following results were obtained: […]

Another assay has as its system Abelson 8.1 lymphoma. Nature of the assay: Tumor cell cytotoxicity test (TCC test). Type of assay: cell-based. The settings on record: 72 hours. As to the method: as §1, §2, §3
A further assay has as its system P815. In words: Tumor cell cytotoxicity test (TCC test). Type of assay: cell-based. The note with it: 72 hours. As to the method:
as §1, §2, §3

The next assay deals with L1210. Nature of the assay: Tumor cell cytotoxicity test (TCC test). Type of assay: cell-based. The note with it: 72 hours. As to the method:
as §1, §2, §3

Another assay has as its system Meth A fibrosarcoma. In words: In vivo Meth A fibrosarcoma test. Further details: species or system mouse. The note with it: for Tumor volume (% of control) day 7: day 7 after tumor implantation; for Survivors (tumor free): ten CBF₁ mice.
Assay [4] relates to Experimental allergic encephalomyelitis. In words: Experimental allergic encephalomyelitis (EAE test), therapeutic treatment. In kind it is in vivo, rat. As for the experimental part: 2. Experimental allergic encephalomyelitis (EEA test) in the rat; therapeutic treatment:
Testing is carried out analogously to that described above with the exception that the administration of the test compound commences on day 7 after sensitization (i.e. immediately prior to appearance of disease symptoms) at dosages of from 5 to 50 mg/kg/day p.o. either daily or every second day and continuing for one week. During the testing period the animals are examined daily for symptoms of the disease and scored as in the previous test method.

Where a name gives a salt, the structure may show the parent alone.

Method for Meth A fibrosarcoma: In vivo Meth A fibrosarcoma test in the mouse:
Ten CBF₁ mice of 10-12 week age are each implanted with 7.3 x 10⁶ Meth A sarcoma cells to serve as control. A second group of ten CBF₁ mice are each implanted with 7.3 x 10⁶ Meth A sarcoma cells and on day one after implant each mouse is treated p.o. with from 5 »g to 50 »g of the test compound per day for a total of twenty or twenty-seven days. Tumor growth and survivors are assayed on days 7, 14, 21 and 28 after tumor implantation.

In the case of `CCCCCCCCCCCCCCCCCCOC[C@@]1(COP(=O)([O-])OCC[N+](C)(C)C)CCCO1` [Compound of formula I, (R)-2-[(2-Octadecyloxymethyltetrahydrofuran-2-ylmethoxy)-hydroxyphosphinyloxy]-N,N,N-trimethylethanaminium hydroxide inner salt-4-oxide], in [1], the protective efficacy result was “effective to fully protect all animals both during treatment and following discontinuation of drug”. In addition, the “inhibiting the appearance of mild to severe clinical symptoms” value in assay [1] was “effective”. Also, the “occurrence of clinical symptoms” value in assay [2] (5 to 50 mg/kg/day p.o. 5 days a week for 2 weeks, versus placebo control groups) is reported as “substantial reduction of occurrence of clinical symptoms”. The “Animals with total paralysis) %” value in [2] turned out to be 36%. Further, the “Animals with total paralysis) No./total” value in assay [2] is recorded as 5/14. Moreover, the figures for the “Suppression of DTH (%)” value in assay [3] (2 x 40 mg/kg orally) and in assay [3] (2 x 80 mg/kg orally) were 73% and 88%, respectively. The “Inhibition with tumor cells (%) YAC-1” value was 8% with YAC-1 (1 »g/ml), 86% in the assay with YAC-1 (3 »g/ml) and 96% in the assay on YAC-1 (5 »g/ml). Moreover, the figures for the “Inhibition with tumor cells (%) Abelson 8.1” value (shortened to “Inhibition … (%) Abelson 8.1”) in the assay on Abelson 8.1 lymphoma (1 »g/ml), in the assay with Abelson 8.1 lymphoma (3 »g/ml) and in the assay on Abelson 8.1 lymphoma (5 »g/ml) were 29%, 93% and 95%, respectively. For the same compound, the “Inhibition with tumor cells (%) P815” value in the assay on P815 (1 »g/ml) was 32%; in the assay on P815 (3 »g/ml) it was 80%; in the assay with P815 (5 »g/ml), 97%. Also, the figures for the “Inhibition with tumor cells (%) L1210” value in the assay with L1210 (1 »g/ml), with L1210 (3 »g/ml) and with L1210 (5 »g/ml) were 16%, 76% and 87%, respectively. The “Tumor volume (% of control) day 7” value is on record as 90 % of control in the assay on Meth A fibrosarcoma (5 »g per mouse per day p.o.) and 85 % of control in the assay with Meth A fibrosarcoma (50 »g per mouse per day p.o.). Also, the “Tumor volume (% of control) day 14” value with Meth A fibrosarcoma (5 »g per mouse per day p.o.) is reported as 52 % of control; in the assay with Meth A fibrosarcoma (50 »g per mouse per day p.o.), 53 % of control. In addition, the “Tumor volume (% of control) day 21” value in the assay with Meth A fibrosarcoma (5 »g per mouse per day p.o.) and in the assay on Meth A fibrosarcoma (50 »g per mouse per day p.o.) was 21 % of control each time. Further, the “Tumor volume (% of control) day 28” value in the assay with Meth A fibrosarcoma (5 »g per mouse per day p.o.) is given as 37 % of control; in the assay with Meth A fibrosarcoma (50 »g per mouse per day p.o.), 32 % of control. The figures for the “Survivors (tumor free)” value in the assay on Meth A fibrosarcoma (5 »g per mouse per day p.o.) and with Meth A fibrosarcoma (50 »g per mouse per day p.o.) were 2/10 and 3/10, respectively. The “appearance of EAE disease symptoms” value in assay [4] (5 to 50 mg/kg/day p.o. from day 7 for one week, versus placebo control groups) is given as “substantial reduction of appearance of EAE disease symptoms”.
On to `CCCCCCCCCCCCCCCCCCOC[C@]1(COP(=O)([O-])OCC[N+](C)(C)C)CCCO1` [Enantiomer of the compound of formula I, (S)-2-[(2-Octadecyloxymethyltetrahydrofuran-2-ylmethoxy)-hydroxyphosphinyloxy)-N,N,N-trimethylethanaminium hydroxide inner salt-4-oxide], for which, in [1], the protective efficacy entry is reported as “much less effective protective efficacy during treatment”. In assay [2], the “Animals with total paralysis) %” value amounted to 86%. Moreover, in assay [2], the “Animals with total paralysis) No./total” value is listed as 12/14. For the same compound, the “Suppression of DTH (%)” value in assay [3] (2 x 40 mg/kg orally) turned out to be 16%; in assay [3] (2 x 80 mg/kg orally) it was 40%. Besides, the “Inhibition with tumor cells (%) YAC-1” value in the assay on YAC-1 (1 »g/ml) is 40%; in the assay with YAC-1 (3 »g/ml) it was 78%; in the assay on YAC-1 (5 »g/ml) it was 91%. Also, the “Inhibition … (%) Abelson 8.1” value was 91% in the assay on Abelson 8.1 lymphoma (1 »g/ml), 98% in the assay with Abelson 8.1 lymphoma (3 »g/ml) and 98% in the assay on Abelson 8.1 lymphoma (5 »g/ml). For the same compound, the “Inhibition with tumor cells (%) P815” value is listed as 84% in the assay with P815 (1 »g/ml), 93% with P815 (3 »g/ml) and 97% with P815 (5 »g/ml). Further, the “Inhibition with tumor cells (%) L1210” value in the assay with L1210 (1 »g/ml) was 45%; in the assay with L1210 (3 »g/ml), 92%; in the assay with L1210 (5 »g/ml), 97%. The “Tumor volume (% of control) day 7” value was 66 % of control with Meth A fibrosarcoma (5 »g per mouse per day p.o.) and 70 % of control in the assay on Meth A fibrosarcoma (50 »g per mouse per day p.o.). Moreover, the figures for the “Tumor volume (% of control) day 14” value with Meth A fibrosarcoma (5 »g per mouse per day p.o.) and with Meth A fibrosarcoma (50 »g per mouse per day p.o.) were 19 % of control and 28 % of control, respectively. Moreover, the “Tumor volume (% of control) day 21” value in the assay with Meth A fibrosarcoma (5 »g per mouse per day p.o.) is 6 % of control; with Meth A fibrosarcoma (50 »g per mouse per day p.o.), 8 % of control. The “Tumor volume (% of control) day 28” value with Meth A fibrosarcoma (5 »g per mouse per day p.o.) is on record as 11 % of control; in the assay with Meth A fibrosarcoma (50 »g per mouse per day p.o.) it was 13 % of control. In addition, the “Survivors (tumor free)” value in the assay with Meth A fibrosarcoma (5 »g per mouse per day p.o.) is 8/10; in the assay with Meth A fibrosarcoma (5 »g per mouse per day p.o., listed as (S)-isomer), 8 out of 10; with Meth A fibrosarcoma (50 »g per mouse per day p.o.) it was 8/10.
As for `CCCCCCCCCCCCCCCCCCOCC1(COP(=O)([O-])OCC[N+](C)(C)C)CCCO1` (racemic) [Example 5 of USP 4'673'672, reference compound], the “Animals with total paralysis) %” value in assay [2] is 43%. Moreover, the “Animals with total paralysis) No./total” value in assay [2] was 3/7. The “Suppression of DTH (%)” value amounted to 31% in assay [3] (2 x 40 mg/kg orally) and 88% in assay [3] (2 x 80 mg/kg orally). Also, the “Inhibition with tumor cells (%) YAC-1” value with YAC-1 (1 »g/ml) is 19%; in the assay on YAC-1 (3 »g/ml) it was 74%; with YAC-1 (5 »g/ml), 91%. Further, the “Inhibition … (%) Abelson 8.1” value is 68% in the assay with Abelson 8.1 lymphoma (1 »g/ml), 97% in the assay on Abelson 8.1 lymphoma (3 »g/ml) and 98% in the assay on Abelson 8.1 lymphoma (5 »g/ml). For the same compound, the “Inhibition with tumor cells (%) P815” value in the assay with P815 (1 »g/ml) is on record as 40%; in the assay on P815 (3 »g/ml), 87%; in the assay on P815 (5 »g/ml), 95%. Moreover, the figures for the “Inhibition with tumor cells (%) L1210” value in the assay on L1210 (1 »g/ml), in the assay on L1210 (3 »g/ml) and with L1210 (5 »g/ml) were 0%, 80% and 91%, respectively. Moreover, the figures for the “Tumor volume (% of control) day 7” value with Meth A fibrosarcoma (5 »g per mouse per day p.o.) and in the assay with Meth A fibrosarcoma (50 »g per mouse per day p.o.) were 82 % of control and 76 % of control, respectively. Besides, the entries for the “Tumor volume (% of control) day 14” value with Meth A fibrosarcoma (5 »g per mouse per day p.o.) and with Meth A fibrosarcoma (50 »g per mouse per day p.o.) were 47 % of control and 38 % of control, respectively. The “Tumor volume (% of control) day 21” value with Meth A fibrosarcoma (5 »g per mouse per day p.o.) is 20 % of control; in the assay with Meth A fibrosarcoma (50 »g per mouse per day p.o.) it was 14 % of control. The figures for the “Tumor volume (% of control) day 28” value in the assay with Meth A fibrosarcoma (5 »g per mouse per day p.o.) and in the assay on Meth A fibrosarcoma (50 »g per mouse per day p.o.) were 32 % of control and 21 % of control, respectively. Also, the “Survivors (tumor free)” value with Meth A fibrosarcoma (5 »g per mouse per day p.o.) is 3/10; in the assay on Meth A fibrosarcoma (50 »g per mouse per day p.o.), 6/10. The “Animals with EAE) %” value in [4] (therapeutic treatment from day 7, 25 mg/kg/day p.o., rat) came out at 29%. Besides, the “Animals with EAE) No./total” value in assay [4] (therapeutic treatment from day 7, 25 mg/kg/day p.o., rat, number of animals with symptoms of disease per total number of rats treated) is on record as 2/7.
As to `CCCCCCCCCCCCCCCCCCOCC1(COP(=O)([O-])OCC[N+](C)(C)C)CCCO1` (racemic) [compound of Example 5 of USP 4'673'672], the “inhibiting the appearance of mild to severe clinical symptoms” value in [1] was “effective”.
